Results: paper PMC10628242, “Enzymatic β-elimination in natural product O- and C-glycoside deglycosylation” (Nature Communications, 2023)

Molecular target: T1, PuCGE (human intestinal bacterium PUE, UniProt A0A3Q9WUX0+A0A3Q9WXL1, A0A3Q9WUX0:Y39F)
T1 construct: gene dgpC; heterodimer alpha (39,205 Da) + beta (18,313 Da), co-expressed from pET-Duet-1 in E. coli; N-terminal Strep-tag II; Mn2+ enzyme
T1 sequence (A0A3Q9WXL1 1-324): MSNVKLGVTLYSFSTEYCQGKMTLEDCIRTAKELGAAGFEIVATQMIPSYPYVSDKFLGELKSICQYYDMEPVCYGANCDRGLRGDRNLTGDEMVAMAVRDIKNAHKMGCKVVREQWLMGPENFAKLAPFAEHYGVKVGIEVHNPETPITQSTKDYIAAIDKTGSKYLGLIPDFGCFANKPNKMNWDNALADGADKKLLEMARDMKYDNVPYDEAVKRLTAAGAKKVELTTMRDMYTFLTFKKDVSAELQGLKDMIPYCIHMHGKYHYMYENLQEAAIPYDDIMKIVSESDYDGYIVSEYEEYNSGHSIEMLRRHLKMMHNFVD
T1 sequence (A0A3Q9WUX0 1-142 Y39F): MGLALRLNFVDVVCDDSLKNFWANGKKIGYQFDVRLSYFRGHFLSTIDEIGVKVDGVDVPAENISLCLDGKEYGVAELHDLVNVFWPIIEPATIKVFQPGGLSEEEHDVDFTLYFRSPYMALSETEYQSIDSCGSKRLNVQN
Assay: HPLC of aglycone release
Format: biochemical
Settings: 2.0 mM substrate; potassium phosphate pH 6.0, 37 °C; text puts Tyr39 in beta, plasmid name puts Y39F on alpha

Structure (SMILES): O=C(CCc1ccc(O)cc1)c1c(O)cc(O)cc1O[C@@H]1O[C@H](CO)[C@@H](O)C(=O)[C@H]1O [3-keto-phlorizin, 3,5-dihydroxy-2-[3-(4-hydroxyphenyl)-1-oxopropyl]phenyl β-D-ribo-hexopyranosid-3-ulose]
- HPLC of aglycone release: The mutated PuCGE exhibits only a minor loss of 3-keto-phlorizin activity
